From ChEMBL document CHEMBL1201862, “PubChem BioAssay data set” (2004)
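Cultured in 96-well plates, cells were exposed to test compound for 48 hours across five concentrations. GI50 is the concentration that inhibits growth by half.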 Calls of active or inactive are those of the source. No stated cut-off is given here; in the data, active = GI50 up to about 1.1 µM and inactive = higher.

Key:
Experiment in all cases: NCI-60 cell line screen, 48 h
ACHN = system: ACHN
HCC 2998 = system: HCC 2998
MCF7 = system: MCF7
MDA-MB-231 = system: MDA-MB-231
MDA-MB-435 = system: MDA-MB-435
MDA-N = system: MDA-N
Malme-3M = system: Malme-3M
OVCAR-3 = system: OVCAR-3
OVCAR-4 = system: OVCAR-4
OVCAR-8 = system: OVCAR-8
U-251 = system: U-251
A498 = system: A498
CAKI-1 = system: CAKI-1
HOP-92 = system: HOP-92
NCI-H226 = system: NCI-H226
NCI-H23 = system: NCI-H23
SK-MEL-2 = system: SK-MEL-2
SNB-75 = system: SNB-75
786-0 = system: 786-0
SF-539 = system: SF-539

Structure (SMILES) | GI50 (ACHN) | GI50 (HCC 2998) | GI50 (MCF7) | GI50 (MDA-MB-231) | GI50 (MDA-MB-435) | GI50 (MDA-N) | GI50 (Malme-3M) | GI50 (OVCAR-3) | GI50 (OVCAR-4) | GI50 (OVCAR-8) | GI50 (U-251) | GI50 (A498) | GI50 (CAKI-1) | GI50 (HOP-92) | GI50 (NCI-H226) | GI50 (NCI-H23) | GI50 (SK-MEL-2) | GI50 (SNB-75) | GI50 (786-0) | GI50 (SF-539)
CC(C)(C)OC(=O)NCCc1ccc(N)cc1 | > 100 µM (inactive) | > 100 µM (inactive) | > 100 µM (inactive) | > 100 µM (inactive) | > 100 µM (inactive) | > 100 µM (inactive) | > 100 µM (inactive) | 19.9 µM (inactive) | > 100 µM (inactive) | > 100 µM (inactive) | 30.8 µM (inactive) | – | – | – | – | – | – | – | – | –
CC(C)(O)/C1=C/C=C/CCCCCCCCCC1 | > 100 µM (inactive) | > 100 µM (inactive) | > 100 µM (inactive) | > 100 µM (inactive) | > 100 µM (inactive) | > 100 µM (inactive) | > 100 µM (inactive) | > 100 µM (inactive) | – | > 100 µM (inactive) | > 100 µM (inactive) | > 100 µM (inactive) | > 100 µM (inactive) | 81.3 µM (inactive) | > 100 µM (inactive) | > 100 µM (inactive) | > 100 µM (inactive) | 0.387 µM (active) | – | –
O=C(N/N=C\c1ccc2ccccc2c1)Nc1ccc([N+](=O)[O-])cc1 | 24.6 µM (inactive) | 22.1 µM (inactive) | 22.3 µM (inactive) | 32.2 µM (inactive) | 31.1 µM (inactive) | 23.5 µM (inactive) | 27.7 µM (inactive) | 20.2 µM (inactive) | 22.1 µM (inactive) | 23 µM (inactive) | 29.3 µM (inactive) | – | 45 µM (inactive) | 17.5 µM (inactive) | 29.4 µM (inactive) | 22.2 µM (inactive) | 24 µM (inactive) | 42.4 µM (inactive) | 24 µM (inactive) | 19.5 µM (inactive)
CC[C@@H](C)[C@H](NC(=O)[C@H](Cc1ccccc1)NCC(F)(F)F)C(=O)OC(C)(C)C | > 100 µM (inactive) | > 100 µM (inactive) | > 100 µM (inactive) | > 100 µM (inactive) | > 100 µM (inactive) | > 100 µM (inactive) | > 100 µM (inactive) | 89.9 µM (inactive) | 82.2 µM (inactive) | > 100 µM (inactive) | > 100 µM (inactive) | > 100 µM (inactive) | > 100 µM (inactive) | > 100 µM (inactive) | 19.6 µM (inactive) | > 100 µM (inactive) | – | – | > 100 µM (inactive) | –
CC1CN(c2cc3c(cc2F)c(=O)c(C(=O)O)cn3-c2ccc(F)cn2)CC(C)N1 (stereo unspecified) | – | – | > 100 µM (inactive) | > 100 µM (inactive) | > 100 µM (inactive) | > 100 µM (inactive) | > 100 µM (inactive) | > 100 µM (inactive) | > 100 µM (inactive) | > 100 µM (inactive) | > 100 µM (inactive) | > 100 µM (inactive) | > 100 µM (inactive) | > 100 µM (inactive) | > 100 µM (inactive) | > 100 µM (inactive) | – | > 100 µM (inactive) | > 100 µM (inactive) | > 100 µM (inactive)
O=C1/C(=C/c2ccc(Cl)cc2)Oc2ccccc21 | 20.4 µM (inactive) | > 100 µM (inactive) | 30.2 µM (inactive) | > 100 µM (inactive) | 79.3 µM (inactive) | 37.3 µM (inactive) | – | > 100 µM (inactive) | 46.5 µM (inactive) | 29.9 µM (inactive) | 36.3 µM (inactive) | – | 2.76 µM (inactive) | – | 38.1 µM (inactive) | 23.4 µM (inactive) | – | 32.7 µM (inactive) | 15.7 µM (inactive) | 20.6 µM (inactive)
CCCNC(=O)c1cc(NC(=O)c2cc(NC(=O)CCS(=O)(=O)OC)cn2C)cn1C | 52.4 µM (inactive) | 43.5 µM (inactive) | 20.5 µM (inactive) | 33.8 µM (inactive) | 19.1 µM (inactive) | 20.9 µM (inactive) | 8.41 µM (inactive) | 10.4 µM (inactive) | 26.5 µM (inactive) | 15.2 µM (inactive) | 6.62 µM (inactive) | > 69.3 µM (inactive) | > 52 µM (inactive) | 3.76 µM (inactive) | – | 17.4 µM (inactive) | 18.3 µM (inactive) | 20.6 µM (inactive) | 23.7 µM (inactive) | –
CC(C)(C)OC(=O)C1=C(C(=O)OC(C)(C)C)SC2(S1)C(C(=O)OC(C)(C)C)=C(C(=O)OC(C)(C)C)Sc1c2ssc1=O | 44.1 µM (inactive) | > 100 µM (inactive) | 49.2 µM (inactive) | 83.8 µM (inactive) | 27.5 µM (inactive) | 45.2 µM (inactive) | > 100 µM (inactive) | 48.2 µM (inactive) | 24.6 µM (inactive) | 49.9 µM (inactive) | 49.1 µM (inactive) | > 100 µM (inactive) | 83.8 µM (inactive) | > 100 µM (inactive) | – | 95.1 µM (inactive) | 72.9 µM (inactive) | – | – | –
